Data published in patent publication US4764533A, “Erythro-1,2-1-pentanones” (Klinge Pharma GmbH, priority 1981, dated 1988).

Assays:
estradiol receptor = target: T1, estradiol receptor (Oryctolagus cuniculus, UniProt G1SML6); assay: Bonding affinity to the estradiol receptor (displacement of (^3 H) estradiol, rabbit uterus cytosol); assay type: binding, rabbit (New Zealand); settings: uterus cytosol of female prepubertal rabbits; 18 hours at 40° C.; 2.5×10^-9 M (^3 H) estradiol; read-out: ED50 (concentration of substance displacing 50% (^3 H) estradiol from the estradiol receptor)
T1 construct: The uterus cytosal of female, prepubertal, white rabbits (New Zealand); from tissue; host or cells: uterus cytosol of female prepubertal New Zealand white rabbits
T1 sequence (G1SML6 1-598): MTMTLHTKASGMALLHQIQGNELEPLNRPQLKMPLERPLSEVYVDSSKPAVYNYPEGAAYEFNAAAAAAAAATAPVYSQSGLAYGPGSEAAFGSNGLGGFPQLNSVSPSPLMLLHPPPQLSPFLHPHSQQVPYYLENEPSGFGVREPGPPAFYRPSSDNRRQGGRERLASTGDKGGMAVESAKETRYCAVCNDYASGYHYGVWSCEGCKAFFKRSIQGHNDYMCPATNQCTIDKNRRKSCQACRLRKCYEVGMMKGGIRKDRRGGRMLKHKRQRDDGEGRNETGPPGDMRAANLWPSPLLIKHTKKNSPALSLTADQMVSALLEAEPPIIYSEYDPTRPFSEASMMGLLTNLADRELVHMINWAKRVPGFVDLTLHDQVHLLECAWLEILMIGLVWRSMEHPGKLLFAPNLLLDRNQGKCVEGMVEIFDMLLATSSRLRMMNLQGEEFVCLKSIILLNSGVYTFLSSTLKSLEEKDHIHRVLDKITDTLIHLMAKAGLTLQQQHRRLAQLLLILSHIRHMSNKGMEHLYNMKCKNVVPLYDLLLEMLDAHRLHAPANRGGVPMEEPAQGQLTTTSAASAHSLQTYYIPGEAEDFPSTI
Description: The determination of the binding affinity to the estradiol receptor was effected by means of the rabbit uterus cytosol.
The measurement of the bonding affinity to the estradiol receptor was affected by the method of N. Devleeschouwer, G. Leclercq, A. Danguy and J. C.

uterus = assay: Antiuterotropic effect (modified Dorfman test, uterus weight); assay type: in vivo, rat (Spraque-Dawley, sexually mature female); settings: 3 mg/kg/day, esophageal tube, 21 days, six times per week; 10 animals
Experimental: The measurement of the antiuterotropic action was effected following a three-week treatment with the active ingredient of sexually mature, female rats. […] The antiuterotropic effect was determined by a modified Dorfman test (R. I. Dorfman, "Methods in Hormone Research II" p. 707, Academic Press, New York-London, 1962), on sexually mature female Spraque-Dawley rats. The test compounds were taken up in a 0.25% aqueous agar suspension and administered by esophageal tube over a period of 21 days, six times per week. Following the completion of the experiment, the uterus weight of animals treated with the active ingredient was related to the uterus weight of the control animals, which received only an empty agar suspension.

[1] = system: mammatumors induced by 7,12-dimethylbenz(a)anthracene; assay: Mammatumor inhibiting effect (7,12-dimethylbenz(a)anthracene-induced mammatumors); assay type: in vivo, rat (female Spraque-Dawley, Hannover strain); settings: 3 mg/kg/day, esophageal tube, 28 days, six times per week; 10 animals; control animals valued at 100%
Experimental: The tumor inhibiting action was measured following a four-week treatment with the active ingredient on female rats, with mammatumors induced previously with 7,12-dimethylbenz(a)anthracene.
The tumor inhibiting effect was determined on the model of mammatumors induced by means of 7,12-dimethylbenz(a)anthracene of female Spraque-Dawley rats (Hannover strain), by the method of M. J. Golder (Europ. J. Cancer 11, 571 (1975)) and D. P. Griswold et al. (Cancer Research 26, 2169 (1966)).
The test substance were taken up in a 0.25% agar solution and administered by esophageal tube over a period of 28 days, six times per week. Twice weekly and on the 28th day of the experiment, the number of animals was ascertained and the tumor surface (mm^2 /animal) of the therapy and control animals measured. At the completion of the experiment, the percentage increase of the average tumor surface of the treated animals was determined, compared with the control animals, which were valued at 100%.

Row | IC50 (estradiol receptor) [nM] | Structure (SMILES) | Weight of uterus compared to control animals (uterus) [%] | Relative increase of average tumor surface [1] [%]
1 | 1.2 | CC[C@H](c1ccccc1)[C@@H](C(=O)c1ccc(OCCN2CCCCC2)cc1)c1ccc(OC)cc1 (relative stereo) [Compound 8, erythro-2-(4'-methoxyphenyl)-3-phenyl-1-(4'-(2-piperidin-1-yl-ethoxy)-phenyl)-1-pentanone] | – | –
2 | 4000 | CC[C@H](c1ccccc1)[C@@H](C(=O)c1ccc(OCCN(CC)CC)cc1)c1ccccc1 (relative stereo) [Compound 2, erythro-1-(4'-(2-diethylaminoethoxy)-phenyl)-2,3-diphenyl-1-pentanone] | -54 | –
3 | 1100 | CC[C@H](c1ccccc1)[C@@H](C(=O)c1ccc(OCCN2CCCC2)cc1)c1ccc(OC)cc1 (relative stereo) [Compound 7, erythro-2-(4'-methoxyphenyl)-3-phenyl-1-(4'-(2-pyrrolidin-1-yl-ethoxy)-phenyl)-1-pentanone] | -43 | –
4 | 2800 | CC[C@H](c1ccccc1)[C@@H](C(=O)c1ccc(OCCN2CCCCC2)cc1)c1ccccc1 (relative stereo) [Compound 4, erythro-2,3-diphenyl-1-(4'-(2-piperidin-1-yl-ethoxy)-phenyl)-1-pentanone] | -28 | –
5 | 5.4 | CC[C@H](c1ccccc1)[C@@H](C(=O)c1ccc(OCCN(C)C)cc1)c1ccc(O)cc1 (relative stereo) [Compound 9, erythro-1-(4'-(2-dimethylaminoethoxy)-phenyl)-2-(4'-hydroxyphenyl)-3-phenyl-1-pentanone] | -54 | 30
6 | 6000 | CC[C@H](c1ccccc1)[C@@H](C(=O)c1ccc(OCCN2CCCC2)cc1)c1ccccc1 (relative stereo) [Compound 3, erythro-2,3-diphenyl-1-(4'-(2-pyrrolidin-1-yl-ethoxy)-phenyl)-1-pentanone] | -36 | –
7 | 500 | CC[C@H](c1ccccc1)[C@@H](C(=O)c1ccc(OCCN(CC)CC)cc1)c1ccc(OC)cc1 (relative stereo) [Compound 6, erythro-1-(4'-(2-diethylaminoethoxy)-phenyl)-2-(4'-methoxyphenyl)-3-phenyl-1-pentanone] | – | –
8 | 4500 | CC[C@H](c1ccccc1)[C@@H](C(=O)c1ccc(OCCN(C)C)cc1)c1ccc(OC)cc1 (relative stereo) [Compound 5, erythro-1-(4'-(2-dimethylaminoethoxy)-phenyl)-2-(4'-methoxyphenyl)-3-phenyl-1-pentanone] | -47 | –
9 | 80 | CC[C@H](c1ccccc1)[C@@H](C(=O)c1ccc(OCCN2CCCC2)cc1)c1ccc(O)cc1 (relative stereo) [Compound 10, erythro-2-(4'-hydroxyphenyl)-3-phenyl-1-(4'-(2-pyrrolidin-1-yl-ethoxy)-phenyl)-1-pentanone] | – | –
10 | 6000 | CC[C@H](c1ccccc1)[C@@H](C(=O)c1ccc(OCCN(C)C)cc1)c1ccccc1 (relative stereo) [Compound 1, erythro-1-(4'-(2-dimethylaminoethoxy)-phenyl)-2,3-diphenyl-1-pentanone] | – | 53
